From patent publication US6177404A (Merck & Co., Inc., priority 1998, dated 2001)

Columns and labels:
[1] = test system: LNCaP prostate tumor cells; test: In vitro Alamar Blue cytotoxicity assay of non-cleavable oligopeptide-doxorubicin conjugates; format: cell-based, human; conditions: FIG. 4 legend, cells incubated 3 days at 37° C., cell line not named in legend (LNCaP or DuPRO in method)
Procedure: The cytotoxicities of the non-cleaveable oligopeptide-doxorubicin conjugates, prepared as described in Example 4, against a line of cells which is known to be killed by unmodified doxorubicin were assessed with an Alamar Blue assay. Specifically, cell cultures of LNCaP prostate tumor cells, which are a human metastatic prostate adenocarcinoma isolated from a needle biopsy of a lymph node (LNCaP.FGC: American Type Culture Collection, ATCC CRL 1740), or DuPRO cells in 96 well plates were diluted with medium containing various concentrations of a given conjugate (final plate well volume of 200 μl). The cells were incubated for 3 days at 37° C. and then 20 μl of Alamar Blue was added to the assay well. The cells were further incubated and the assay plates were read on a EL-310 ELISA reader at the dual wavelengths of 570 and 600 nm at 4 and 7 hours after addition of Alamar Blue. Relative percentage viability at the various concentration of conjugate tested was then calculated versus control (no conjugate) cultures. Cytotoxicities of unmodified doxorubicin and unmodified oligopeptide were also assessed.

Row | Molecule | cleaved bond (free PSA) | EC50 [1] [µM]
1 | COc1cccc2c1C(=O)c1c(O)c3c(c(O)c1C2=O)C[C@@](O)(C(=O)CO)C[C@@H]3O[C@H]1C[C@H](N)[C@H](O)[C@H](C)O1 [doxorubicin] |  | 0.3
2 | Ac-AlaAsnLysAlaSerTyrGln.vertline.SerAlaSerCys-amide | Gln-Ser | 
3 | Ac-AlaAsnLysIleSerTyrGln.vertline.SerAlaLysThrGlu-amide | Gln-Ser | 
4 | Ac-AlaAsnLysIleSerTyrGln.vertline.SerSerGlnThrGlu-amide | Gln-Ser | 
5 | Ac-AlaAsnLysIleSerTyrGln.vertline.SerSerSerThrLeu | Gln-Ser | 
6 | Ac-AlaAsnLysIleSerTyrGln.vertline.SerSerSerThrLeu-amide | Gln-Ser | 
7 | Ac-AlaAsnLysIleSerTyrGln.vertline.SerSerThrGlu-amide | Gln-Ser | 
8 | Ac-AlaAsnLysIleSerTyrTyr.vertline.SerAlaSerThrGlu-amide | Tyr-Ser | 
9 | Ac-AlaAspLysAlaLysTyrGln.vertline.SerSer(Cha)-NHNH2 | Gln-Ser | 
10 | Ac-AlaSerTyrGln.vertline.SerSerSerThrGlu-amide | Gln-Ser | 
11 | Ac-AlaSerTyrGln.vertline.SerSerThrGlu-amide | Gln-Ser | 
12 | Ac-LysIleSerTyrGln.vertline.SerSer-amide | Gln-Ser | 
13 | Ac-hArg(Cha)Gln.vertline.SerSerSer(ethylester-Leu) | Gln-Ser | 
14 | Ac-hArgTyrGln.vertline.SerSerSer(Ethylester-Leu) | Gln-Ser | 
15 | AlaAsnLysIleSerTyrGln.vertline.SerSerSerThrGlu-amide | Gln-Ser | 

Continued, in another order:

Row | cleaved bond (free PSA) | Molecule | EC50 [1] [µM]
16 | Gln-Ser | Ac-AlaAsnGluIleSerTyrGln.vertline.SerAlaSerThrGlu-amide | 
17 | Gln-Ser | Ac-AlaAsnLysAlaSerTyrGln.vertline.SerAlaSerThrGlu-amide | 
18 | Gln-Ser | Ac-AlaAsnLysIleSerTyrGln.vertline.SerAlaSerThrGlu-amide | 
19 | Gln-Ser | Ac-AlaAsnLysIleSerTyrGln.vertline.SerSerLysThrGlu-amide | 
20 | Gln-Ser | Ac-AlaAsnLysIleSerTyrGln.vertline.SerSerSerThrGlu-amide | 
21 | Gln-Ser | Ac-AlaAsnLysIleSerTyrGln.vertline.SerThrGlu-amide | 
22 | Tyr-Ser | Ac-AlaAsnLysIleSerTyrTyr.vertline.SerSerSerThrGlu-amide | 
23 | Gln-Ser | Ac-AlaAsnLysSerTyrGln.vertline.SerSerThrGlu-amide | 
24 | Gln-Ser | Ac-AlaAsnSerTyrGln.vertline.SerSerSerThrGlu-amide | 
25 | Gln-Ser | Ac-AlaSerTyrGln.vertline.SerSerLeu-amide | 
26 | Gln-Ser | Ac-AsnLysIleSerTyrGln.vertline.SerSer-amide | 
27 | Gln-Ser | Ac-SerTyrGln.vertline.SerSerSerThrGlu-amide | 
28 | Gln-Ser | Ac-SerTyrGln.vertline.SerSerThrGlu-amide | 
29 | Gln-Ser | Ac-hArgTyrGln.vertline.SerSerSer(MeLeu) | 
